From patent publication US20110245340A1, “Screening Method for Identifying Patients at Risk of Adverse Hepatologic Events” (priority 2009, published 2011)

Legend:
[1] = Large clinical study (more than 6000 pts, 2 year average exposure) in patients with pre-existing coronary artery disease; format: in vivo
[2] = Hepatic events in combined dataset of type 2 diabetes mellitus patients using the risk identification tool (exclusion by ApoA1 > ULN or ALT > 2X ULN); format: in vivo, human; details: for Percent of Hepatic Events: of 14 events
Text: As noted in Example 2, hepatic events in the sample populations were distributed 71% (17/24) for AGI-1067 treated patients and 29% (7/24) for patients receiving placebo resulting in an AGI-1067 to placebo ratio of 2.4.
There were 14 patients in the combined dataset who had hepatic events using the ALT >5× ULN plus TBL <2× ULN or ALT >3× ULN plus TBL >2× ULN criteria. As noted in Example 2, at randomization the ratio of AGI-1067 to placebo patients was 1.3, the same value as the randomization ratio for AGI-1067 compared to placebo.
When patients with elevated ApoA1 levels or ALT levels of greater than 2.0 times ULN were excluded, 10 hepatic events were eliminated. Of these, 90% were in the AGI-1067 treatment arm. Of the remaining 14 hepatic events, 8 were in AGI-1067 treated patients while 6 were in placebo treated patients. These hepatic events were distributed 57% (8/14) for AGI-1067 patients and 43% (6/14) for patients receiving placebo.
Table 4 summarizes the impact of the exclusionary criteria (primarily ApoA1 elevation) on the number, frequency distribution and ratio of hepatic events for the AGI-1067 and placebo groups in the 3270 type 2 diabetes mellitus patients contained in the datasets.
ALT >2× ULN could also be used as a secondary indicator for exclusion of patients.

[3] = Hepatic events / ALT elevations in combined dataset of diabetes mellitus patients, before use of the risk identification tool; format: in vivo, human; details: for Number of Patients ALT 3X to ≦ 5X ULN With TBL ≦ 2X ULN: diabetes patients; for Percent of Hepatic Events: of 24 events
Experimental: Analyses were conducted to identify potential risk factors for drug-induced liver toxicity in clinical studies of the monosuccinic acid ester of probucol (AGI-1067). AGI-1067 represents a new class of therapies targeting certain chronic diseases such as type II diabetes mellitus and atherosclerosis. AGI-1067 functions both as a direct antioxidant and an inducer of endogenous, antioxidant processes such as hemeoxygenase-1 and thioredoxin.
There were 36 patients who had peak elevations of ATL between 3× and ≦5× ULN in the combined dataset of diabetes mellitus patients. […] ALT levels therefore appear to have limited value in assessing potential for hepatotoxicity.
There were 24 diabetes patients in the combined dataset who had hepatic events as using a criteria of either ALT >5× ULN plus TBL <2× ULN or ALT >3× ULN plus TBL >2× ULN criteria. At randomization, 57% of the patients were in the AGI-1067 arm and 43% were in the placebo arm resulting in an AGI-1067 to placebo ratio of 1.3. Of the 24 hepatic events, 17 occurred in AGI-1067 treated patients and 7 occurred in placebo treated patients. […]

[4] = in vivo; cited from earlier work
[5] = using the risk identification tool, 75 mg
[6] = using the risk identification tool, 150 mg
[7] = using the risk identification tool, 300 mg
[8] = using the risk identification tool, AGI-1067 all doses
[9] = before use of the risk identification tool, 75 mg
[10] = before use of the risk identification tool, 150 mg
[11] = before use of the risk identification tool, 300 mg
[12] = before use of the risk identification tool, AGI-1067 all doses

CC(C)(Sc1cc(C(C)(C)C)c(O)c(C(C)(C)C)c1)Sc1cc(C(C)(C)C)c(OC(=O)CCC(=O)O)c(C(C)(C)C)c1 [AGI-1067, monosuccinic acid ester of probucol]
Number of patients demonstrating elevated ALT and bilirubin ([1]; of 3078 patients randomized to AGI-1067, four in the placebo arm): eight
HbA1c levels ([1]; subset of patients with type 2 diabetes mellitus): lower HbA1c levels
Hard cardiovascular endpoints (composite of cardiovascular death, non-fatal MI and non-fatal stroke) ([1]; well-treated patients with pre-existing coronary artery disease): reduce hard cardiovascular endpoints
Incidence of hepatic events after application of the exclusionary criteria ([2]; 8/1851 patients): 0.4%
Decrease (↓) of total number of hepatic events by using the risk identification tool ([2]; AGI-1067 all doses, versus before use of the tool): 53%
Excluded hepatic events relative to placebo patients using Baseline ApoA1 as predictive biomarker ([2]; Baseline ApoA1): seven times more excluded hepatic events
Number of Hepatic Events Excluded ([2]; Totals of all biomarkers): 9
Number of Hepatic Events Excluded ([2]; biomarker Apo A1 > 165 mg/dl): 7
Number of Hepatic Events Excluded ([2]; biomarker Baseline ALT > 2X ULN): 1
Number of Hepatic Events Excluded ([2]; biomarker Month 1 ALT > 2X ULN): 1
Share of the 10 eliminated hepatic events that were in the AGI-1067 treatment arm ([2]; exclusion of elevated ApoA1 or ALT > 2.0 times ULN): 90%
Number of hepatic events versus placebo arm after excluding patients with ApoA1 above ULN (165 mg/dl) before drug ([2]; human, in vivo): achieved parity
Ratio 1067/Placebo Hepatic Events ([2]; using the risk identification tool): 1.3
Number of Hepatic Events ALT > 3X ULN Plus TBL > 2X ULN [2, 5]: 0
Number of Hepatic Events ALT > 5X ULN With TBL ≦ 2X ULN [2, 5]: 2
Number of Hepatic Events Total [2, 5]: 2
Percent of Hepatic Events [2, 5]: 14%
Number of Hepatic Events ALT > 3X ULN Plus TBL > 2X ULN [2, 6]: 0
Number of Hepatic Events ALT > 5X ULN With TBL ≦ 2X ULN [2, 6]: 1
Number of Hepatic Events Total [2, 6]: 1
Percent of Hepatic Events [2, 6]: 7%
Number of Hepatic Events ALT > 3X ULN Plus TBL > 2X ULN [2, 7]: 2
Number of Hepatic Events ALT > 5X ULN With TBL ≦ 2X ULN [2, 7]: 3
Number of Hepatic Events Total [2, 7]: 5
Percent of Hepatic Events [2, 7]: 36%
Number of Hepatic Events ALT > 3X ULN Plus TBL > 2X ULN [2, 8]: 2
Number of Hepatic Events ALT > 5X ULN With TBL ≦ 2X ULN [2, 8]: 6
Number of Hepatic Events Total [2, 8]: 8
Percent of Hepatic Events [2, 8]: 57%
Number of Patients ALT 3X to ≦ 5X ULN With TBL ≦ 2X ULN ([3]; 75 mg): 3
Percent of ALT Elevations ([3]; 75 mg, share of 36 patients): 8%
Number of Patients ALT 3X to ≦ 5X ULN With TBL ≦ 2X ULN ([3]; 150 mg): 4
Percent of ALT Elevations ([3]; 150 mg, share of 36 patients): 11%
Number of Patients ALT 3X to ≦ 5X ULN With TBL ≦ 2X ULN ([3]; 300 mg): 10
Percent of ALT Elevations ([3]; 300 mg, share of 36 patients): 28%
Number of Patients ALT 3X to ≦ 5X ULN With TBL ≦ 2X ULN ([3]; AGI-1067 all doses): 17
Percent of ALT Elevations ([3]; AGI-1067 all doses, share of 36 patients with ALT 3X to ≦5X ULN): 47%
Ratio 1067/Placebo Hepatic Events ([3]; before use of the risk identification tool): 2.4
Number of Hepatic Events ALT > 3X ULN Plus TBL > 2X ULN [3, 9]: 0
Number of Hepatic Events ALT > 5X ULN With TBL ≦ 2X ULN [3, 9]: 4
Number of Hepatic Events Total [3, 9]: 4
Percent of Hepatic Events [3, 9]: 17%
Number of Hepatic Events ALT > 3X ULN Plus TBL > 2X ULN [3, 10]: 0
Number of Hepatic Events ALT > 5X ULN With TBL ≦ 2X ULN [3, 10]: 2
Number of Hepatic Events Total [3, 10]: 2
Percent of Hepatic Events [3, 10]: 8%
Number of Hepatic Events ALT > 3X ULN Plus TBL > 2X ULN [3, 11]: 4
Number of Hepatic Events ALT > 5X ULN With TBL ≦ 2X ULN [3, 11]: 7
Number of Hepatic Events Total [3, 11]: 11
Percent of Hepatic Events [3, 11]: 46%
Number of Hepatic Events ALT > 3X ULN Plus TBL > 2X ULN [3, 12]: 4
Number of Hepatic Events ALT > 5X ULN With TBL ≦ 2X ULN [3, 12]: 13
Number of Hepatic Events Total [3, 12]: 17
Percent of Hepatic Events [3, 12]: 71%
Incidence of ALT elevations 3X to ≦5X ULN versus placebo ([3]; diabetes mellitus patients): comparable

NNC(=O)c1ccncc1 [isoniazid]
Serious hepatotoxicity, share of recipients [4]: about 0.1%
